Source: patent US20240124389A1, “COMPOUND OR SALT THEREOF, LIPID PARTICLES, AND PHARMACEUTICAL COMPOSITION” (FUJIFILM Corporation, priority 2021, published 2024)

Columns and labels:
[1] = Particle size of EPO mRNA-encapsulating lipid particles; type: physicochemical; conditions: aminolipid 50 / DOPE 10 / cholesterol 38.5 / DMG-PEG2000 1.5 mol %, lipid/nucleic acid 64 wt/wt
Procedure, shortened: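 Lipid particles made from ethanol lipid phase (20 mmol/L total lipid, with DSPC, DOPE or DOPC, cholesterol, DMG-PEG2000) and EPO mRNA in pH 4 citrate buffer (lipid:mRNA about 16:1 to 64:1 w/w), mixed 3:1 aqueous:oil, then dialyzed against 10% sucrose. Size measured after 10-fold PBS dilution by light-scattering analyzer.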

PTEN mRNA = PTEN mRNA knockdown in vitro (quantification of PTEN mRNA by PCR); type: cell-based, human; conditions: SH-SY5Y cells; PTEN ASO lipid particles of Table 3, ASO 500 nmol/L, exposure 24 hours; PTEN mRNA by ΔΔCt method
Source text: An antisense oligonucleotide nucleic acid (PTEN ASO) for a PTEN protein was purchased from Hokkaido System Science Co., Ltd. PTEN ASO is an oligonucleotide consisting of 20 bases, in which nucleotides are connected by a phosphodiester bond, and the sequence of which is described below.
In an in vitro test using SH-SY5Y cells (American Type Culture Collection), E-MEM (gibco), Ham's F12 (gibco), FBS (gibco), Penicillin-streptomycin (gibco), and NEAA (FUJIFILM Wako Pure Chemical Corporation) were mixed at a ratio of 41.5:41.5:15:1:1 and the mixture was used as a culture medium.
The measurement of PTEN protein mRNA was performed according to the protocol of TaqMan (register trademark) Fast Advanced Cells-to-CT™ Kit (Thermo Fisher Scientific). To A431 cells or SH-SY5Y cells, a dispersion liquid of nucleic acid lipid particles prepared to have a final concentration of 500 nmol/L as an ASO concentration, Naked ASO or PBS was added. After exposure for 24 hours under the control of 37° C. and 5% CO2, the culture supernatant was removed, and the mixture was washed once with PBS at 4° C. After removing the PBS, a lysis solution was added at 50 μL/well, and the mixture was stood still for 5 minutes at room temperature to obtain a cell lysate. For the cell lysate, TaqMan (register trademark) Fast Advanced Cells-to-CT™ Kit (Thermo Fisher scientific), and Hs02621230_s1, FAM/MGB (Thermo Fisher Scientific) and Human GAPDH Endogenous Control (VIC (register trademark)/MGB, Thermo Fisher Scientific) as a PCR reaction reagent were used to perform reverse transcription and PCR reaction.
The PTEN mRNA level of each sample was calculated by the ΔΔCt method. Specifically, the Ct value of GAPDH is subtracted from the Ct value of PTEN to calculate the ΔCt value of each sample. The average value of the ΔCt values of the PBS treatment group was subtracted from the calculated ΔCt value to calculate the ΔΔCt value. For each ΔΔCt value, a relative value with respect to the Naked ASO to be compared was taken as a PTEN mRNA relative value.

[2] = Particle size of PTEN ASO-LNP; type: physicochemical; conditions: PTEN ASO lipid particles; aminolipid 50 / DSPC 20 / cholesterol 28.5 / monostearyl PEG 1.5 mol %; lipid/nucleic acid 11.8 wt/wt
Description: The first lipid, phospholipid, cholesterol, and polyethylene glycol lipid (PEG lipid) shown in Table 3 were dissolved in ethanol at the molar ratio shown in Table 3 such that the total lipid concentration was 20 mmol/L to obtain the oil phase.
As the neutral lipid, 1,2-Distearoyl-sn-glycero-3-phosphocholine (DSPC, product name: COATSOME MC-8080, NOF corporation) was used. As the cholesterol, cholesterol (product name: Cholesterol HP; Nippon Seika Co., Ltd.) was used. As the PEG lipid, monostearyl PEG (product name: Polyethylene Glycol Monostearate (4E.O.), FUJIFILM Wako Pure Chemical Corporation) was used.
5 mg of PTEN ASO was dissolved in 1 mL of sterile water and diluted with a 10 mmol/L acetate buffer having a pH of 4 such that the nucleic acid concentration was 54.6 μmol/L, to obtain a water phase. Then the water phase and the oil phase were mixed together with a micromixer (see JP5288254B) using a syringe pump such that the volume ratio of water phase:oil phase was 3:1, and the mixed solution was two-fold diluted with a phosphate buffered physiological saline (PBS), thereby obtaining a dispersion of nucleic acid lipid particles.
The particle size and polydispersion index of the lipid particles were measured by 10-fold diluting the dispersion liquid of lipid particle with phosphate buffered physiological saline (PBS) using Zeta-potential & Particle size Analyzer ELS-Z2 (Otsuka Electronics Co., Ltd.).

human EPO = test: Measurement of EPO enzyme activity (EPO protein in blood plasma of mice after intravenous administration of EPO mRNA lipid particles); type: in vivo; conditions: C57BL/6J mice, tail-vein i.v., mRNA 0.1 mg/kg, plasma 20 to 24 hours; aminolipid 50 / DOPE 10 / cholesterol 38.5 / DMG-PEG2000 1.5 mol %; lipid/nucleic acid 64 wt/wt
Procedure, shortened: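 C57BL/6J mice received EPO mRNA (5moU) in lipid particles (ionizable lipid, DSPC/DOPE/DOPC, cholesterol, DMG-PEG2000) by tail-vein injection at 0.1 mg/kg mRNA. Plasma taken 20–24 h later; human EPO measured by ELISA and expressed relative to a comparative formulation set as 1.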

| SMILES | Particle size [1] [nm] | Particle size [2] [nm] | PTEN knockdown relative value with respect to Naked ASO (PTEN mRNA) | Relative amount of EPO protein (with respect to Comparative Example 1) (human EPO) |
| --- | --- | --- | --- | --- |
| CCCCCCC(CCCC)COC(=O)CCCC(CCCCCC)OC(=O)OCCN(CCOC(=O)OC(CCCCCC)CCCC(=O)OCC(CCCC)CCCCCC)CCN(CC)CC (centres unmarked) [Example 8, Bis(2-butyloctyl) 11-(2-(diethylamino)ethyl)-5,17-dihexyl-7,15-dioxo-6,8,14,16-tetraoxa-11-azahenicosanedioate] | 81.3 | 87.7 | 0.65 | 2.27 |
| CCCCCCC(CCCC(=O)OCC(CCCCC)CCCCC)OC(=O)OCCN(CCCN(CC)CC)CCOC(=O)OC(CCCCCC)CCCC(=O)OCC(CCCCC)CCCCC (centres unmarked) [Example 13, Bis(2-pentylheptyl) 11-(3-(diethylamino)propyl)-5,17-dihexyl-7,15-dioxo-6,8,14,16-tetraoxa-11-azahenicosanedio ate] | 79.5 | 60.4 | 0.34 | 5.09 |

More lines, main results first:

| Particle size [1] [nm] | Particle size [2] [nm] | SMILES | PTEN knockdown relative value with respect to Naked ASO (PTEN mRNA) | Relative amount of EPO protein (with respect to Comparative Example 1) (human EPO) |
| --- | --- | --- | --- | --- |
| 109.4 | 81.5 | CCCCCC(CCCCC)COC(=O)CCCC(CCC)OC(=O)OCCN(CCOC(=O)OC(CCC)CCCC(=O)OCC(CCCCC)CCCCC)CCN(CC)CC (centres unmarked) [Example 21, Bis(2-pentylheptyl) 11-(2-(diethylamino)ethyl)-7,15-dioxo-5,17-dipropyl-6,8,14,16-tetraoxa-11-azahenicosanedioate] | 0.33 | 4.66 |
| 108.7 | 104.3 | CCCCCCCOC(=O)CCCC(CCCC(=O)OCCCCCCC)OC(=O)OCCN(CCOC(=O)OC(CCCC(=O)OCCCCCCC)CCCC(=O)OCCCCCCC)CCN(CC)CC [Example 29, diheptyl 11-(2-(diethylamino)ethyl)-5,17-bis(4-(heptyloxy)-4-oxobutyl)-7,15-dioxo-6,8,14,16-tetraoxa-11-azahenicosanedioate] | 0.80 | 9.90 |
| 136.1 | 58.6 | CCCCCCCOC(=O)CCCC(CCCC(=O)OCCCCCCC)OC(=O)OCCN(CCOC(=O)OC(CCCC(=O)OCCCCCC)CCCC(=O)OCCCCCC)CCN(CC)CC [Example 37, 1-Heptyl 21-hexyl 11-(2-(diethylamino)ethyl)-5-(4-(heptyloxy)-4-oxobutyl)-17-(4-(hexyloxy)-4-oxobutyl)-7,15-d ioxo-6,8,14,16-tetraoxa-11-azahenicosanedioate] | 0.83 | 5.18 |
